Test system: RS4; 11 with G101V mutation
Assay: In vitro anti-proliferation assay (ATPlite luminescence) in BCL-2-dependent ALL cell line RS4;11 with G101V mutation
Assay type: cell-based
Settings: cellular anti-proliferative IC50, about 72 hours, medium with 10% FBS, ATPlite; read-out: RS411-G101V IC50
Description: Cell antiproliferation was assayed by PerkinElmer ATPlite™ Luminescence Assay System. Briefly, the various test cancer cell lines were plated at a density of about 1×10^4 cells per well in Costar 96-well plates, and were incubated with different concentrations of compounds for about 72 hours in medium supplemented with 10% FBS. One lyophilized substrate solution vial was then reconstituted by adding 5 mL of substrate buffer solution, and was agitated gently until the solution was homogeneous. About 50 μL of mammalian cell lysis solution was added to 100 μL of cell suspension per well of a microplate, and the plate was shaken for about five minutes in an orbital shaker at ˜700 rpm. This procedure was used to lyse the cells and to stabilize the ATP. Next, 50 μL substrate solution was added to the wells and microplate was shaken for five minutes in an orbital shaker at ˜700 rpm. Finally, the luminescence was measured by a PerkinElmer TopCount® Microplate Scintillation Counter. Such assays, carried out with a range of doses of test compounds, allowed the determination of the cellular anti-antiproliferative IC50 of the compounds of the present invention.
The following table lists the IC50 values of another study for certain compounds of the invention.

Compound | IC50 [µM]
4-(2-((R)-2-(2-isopropoxyphenyl)-4-((S)-tetrahydro-2H-pyran-3-yl)piperazin-1-yl)-7-azaspiro[3.5]nonan-7-yl)-N-(((R)-5-nitro-3-(tetrahydro-2H-pyran-4-yl)-3,4-dihydro-2H-benzo[b][1,4]oxazin-7-yl)sulfonyl)-2-((5aS,9aR)-6,7,9,9a-tetrahydro-1H-pyrano[3,4-b]pyrrolo[3′,2′:5,6]pyrido[3,2-e][1,4]oxazin-5(5aH)-yl)benzamide [Example 208] | 0.0727
COc1ccc(CN2CCN(C3CC4(CCN(c5ccc(C(=O)NS(=O)(=O)c6ccc(NC[C@H]7CC[C@](C)(O)CC7)c([N+](=O)[O-])c6)c(N6c7cc8cc[nH]c8nc7O[C@H]7COCC[C@@H]76)c5)CC4)C3)[C@@H](c3ccccc3OC(C)C)C2)cc1 [Example 99, 2-[(3R,8S)-2,5-dioxa-9,15,17-triazatetracyclo[8.7.0.0^{3,8}.0^{12,16}]heptadeca-1(10),11,13,16-tetraen-9-yl]-4-{2-[(2S)-2-(2-isopropoxyphenyl)-4-[(4-methoxyphenyl)methyl]piperazin-1-yl]-7-azaspiro[3.5]nonan-7-yl}-N-[3-nitro-4-({[(1r,4r)-4-hydroxy-4-methylcyclohexyl]methyl}amino)benzenesulfonyl]benzamide] | 0.0385
CC(C)Oc1ccccc1[C@H]1CN(Cc2ccc(N3CCOCC3)nc2)CCN1C1CC2(CCN(c3ccc(C(=O)NS(=O)(=O)c4ccc(NCC5CCC(C)(O)CC5)c([N+](=O)[O-])c4)c(N4c5cc6cc[nH]c6nc5O[C@H]5COCC[C@@H]54)c3)CC2)C1 (stereo partly drawn) [Example 100, 2-[(3R,8S)-2,5-dioxa-9,15,17-triazatetracyclo[8.7.0.0^{3,8}.0^{12,16}]heptadeca-1(10),11,13,16-tetraen-9-yl]-4-{2-[(2S)-2-(2-isopropoxyphenyl)-4-{[6-(morpholin-4-yl)pyridin-3-yl]methyl}piperazin-1-yl]-7-azaspiro[3.5]nonan-7-yl}-N-[3-nitro-4-({[(1r,4r)-4-hydroxy-4-methylcyclohexyl]methyl}amino)benzenesulfonyl]benzamide] | 0.0161
COc1cc(CN2CCN(C3CC4(CCN(c5ccc(C(=O)NS(=O)(=O)c6ccc(NCC7CCC(C)(O)CC7)c([N+](=O)[O-])c6)c(N6c7cc8cc[nH]c8nc7O[C@H]7COCC[C@@H]76)c5)CC4)C3)[C@@H](c3ccccc3OC(C)C)C2)cnc1N1CCOCC1 (stereo partly drawn) [Example 101, N-((4-((((1r,4r)-4-hydroxy-4-methylcyclohexyl)methyl)amino)-3-nitrophenyl)sulfonyl)-4-(2-((S)-2-(2-isopropoxyphenyl)-4-((5-methoxy-6-morpholinopyridin-3-yl)methyl)piperazin-1-yl)-7-azaspiro[3.5]nonan-7-yl)-2-((5aS,9aR)-6,7,9,9a-tetrahydro-1H-pyrano[3,4-b]pyrrolo[3′,2′:5,6]pyrido[3,2-e][1,4]oxazin-5(5aH)-yl)benzamide] | 0.0129
COc1ccc(CN2CCN(C3CC4(CCN(c5ccc(C(=O)NS(=O)(=O)c6ccc(NCC7CCC(C)(O)CC7)c([N+](=O)[O-])c6)c(N6c7cc8cc[nH]c8nc7O[C@H]7COCC[C@@H]76)c5)CC4)C3)[C@@H](c3ccccc3OC(C)C)C2)cn1 (stereo partly drawn) [Example 102, 2-[(3R,8S)-2,5-dioxa-9,15,17-triazatetracyclo[8.7.0.0^{3,8}.0^{12,16}]heptadeca-1(10),11,13,16-tetraen-9-yl]-4-{2-[(2S)-2-(2-isopropoxyphenyl)-4-[(6-methoxypyridin-3-yl)methyl]piperazin-1-yl]-7-azaspiro[3.5]nonan-7-yl}-N-[3-nitro-4-({[(1r,4r)-4-hydroxy-4-methylcyclohexyl]methyl}amino)benzenesulfonyl]benzamide] | 0.018
